Drawing on patent US11091479B2, “Triazolopyridin-3-ones or their salts and pharmaceutical compositions comprising the same” (YUHAN CORPORATION, priority 2018, dated 2021), this text covers IC50 for nine molecules.

Structures can show the parent of a compound that is named as a salt. Bounds are passed on as bounds.

Holding throughout (format): biochemical
Test [1] concerns the target T1, recombinant human DAO (diamine oxidase) (Homo sapiens, UniProt P19801).
T1 construct: purchased R&D systems
T1 sequence (P19801 20-751): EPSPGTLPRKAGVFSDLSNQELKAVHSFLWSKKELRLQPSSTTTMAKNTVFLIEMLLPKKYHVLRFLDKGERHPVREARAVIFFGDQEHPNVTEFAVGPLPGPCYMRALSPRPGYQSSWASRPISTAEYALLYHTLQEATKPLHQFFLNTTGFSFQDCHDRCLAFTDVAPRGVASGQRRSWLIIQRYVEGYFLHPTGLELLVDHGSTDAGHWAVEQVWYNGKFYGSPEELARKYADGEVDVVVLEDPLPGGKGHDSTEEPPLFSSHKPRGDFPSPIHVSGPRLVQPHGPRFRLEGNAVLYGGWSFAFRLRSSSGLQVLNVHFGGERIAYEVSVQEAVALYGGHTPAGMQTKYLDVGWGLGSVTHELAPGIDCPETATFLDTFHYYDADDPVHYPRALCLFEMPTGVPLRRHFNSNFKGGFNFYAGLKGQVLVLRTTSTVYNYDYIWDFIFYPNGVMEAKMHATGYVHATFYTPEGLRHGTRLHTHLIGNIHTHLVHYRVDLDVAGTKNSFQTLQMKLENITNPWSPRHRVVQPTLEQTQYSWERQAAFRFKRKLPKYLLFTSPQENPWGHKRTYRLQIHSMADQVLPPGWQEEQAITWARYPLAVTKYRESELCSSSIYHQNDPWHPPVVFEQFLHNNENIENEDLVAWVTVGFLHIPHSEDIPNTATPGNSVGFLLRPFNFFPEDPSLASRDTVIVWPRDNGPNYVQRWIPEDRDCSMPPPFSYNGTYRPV
Put plainly: Activity on recombinant human DAO, method similar to VAP-1 assay, 1 mM putrescine substrate. The following applies: read-out: Inhibitory Activity (IC50, nM) DAO. How it is done: (§1) The compounds according to the present technology were evaluated in terms of activity on recombinant human VAP-1 (R&D systems) by measuring the level of hydrogen peroxide in horseradish peroxidase (HRP)-coupled reaction using Amplex Red Hydrogen Peroxide Assay Kit (Molecular Probes, Invitrogen, USA). The experiment was carried out at room temperature using benzylamine as a substrate. In the HRP-coupled reaction, hydrogen peroxide oxidation of 10-acetyl-3,7-dihydroxyphenoxazine (Amplex Red reagent) produces resorufin, which is a highly fluorescent compound. Briefly, the test compound was dissolved in dimethyl sulfoxide (DMSO) at a concentration of 20 mM. The dose-response assessment was made by 1:3 serial dilution in DMSO, thereby creating a 8 point curve. The concentration of the upper part was controlled according to the efficacy of the compounds, followed by dilution with a reaction buffer solution to obtain a final DMSO concentration of less than 1%. To each well of a 96 black well plate, human VAP-1 purified in 50 mM sodium phosphate buffer solution (pH7.4) was added. The test compounds dissolved in DMSO were incubated with the human VAP-1 enzymes at 37° C. for 30 minutes. After 30-minute incubation, each well was added with a reaction mixture containing 200 uM Amplex Red reagent prepared from 50 mM sodium phosphate buffer solution (pH 7.4), 1 mM benzylamine, and 1 U/mL HRP. Fluorescence intensity was measured at several time points during 1-2 hours using a microplate reader (Flexstation3, Molecular Devices) under the wavelength condition exciting at 544 nm and reading the emission at 590 nm. The inhibitory effect of the compounds was measured as a decrease (%) in the signal rate as compared to the control group without any inhibitor (only diluted DMSO). Data was fixed to a logistic model with four variables and IC50 value was calculated using GraphPad Prism program.
(§2) In addition, the compounds according to the present technology were evaluated in terms of activity on a recombinant human MAO-A (monoamine oxidase-A, Sigma-Aldrich) and a recombinant human MAO-B(monoamine oxidase-B, Sigma-Aldrich) by using as substrates, 0.5 mM tyramine and 1 mM benzylamine, respectively, with a method similar to the activity evaluation method for recombinant human VAP-1. The compounds according to the present technology were also evaluated in terms of activity on a recombinant human DAO (diamine oxidase, R&D systems) by using as a substrate 1 mM putrescine with a method similar to the activity evaluation method for recombinant human VAP-1.

Test [2] has as its target T2, recombinant human MAO-A (monoamine oxidase-A) (Homo sapiens, UniProt P21397).
T2 construct: purchased Sigma-Aldrich
T2 sequence (P21397 1-527): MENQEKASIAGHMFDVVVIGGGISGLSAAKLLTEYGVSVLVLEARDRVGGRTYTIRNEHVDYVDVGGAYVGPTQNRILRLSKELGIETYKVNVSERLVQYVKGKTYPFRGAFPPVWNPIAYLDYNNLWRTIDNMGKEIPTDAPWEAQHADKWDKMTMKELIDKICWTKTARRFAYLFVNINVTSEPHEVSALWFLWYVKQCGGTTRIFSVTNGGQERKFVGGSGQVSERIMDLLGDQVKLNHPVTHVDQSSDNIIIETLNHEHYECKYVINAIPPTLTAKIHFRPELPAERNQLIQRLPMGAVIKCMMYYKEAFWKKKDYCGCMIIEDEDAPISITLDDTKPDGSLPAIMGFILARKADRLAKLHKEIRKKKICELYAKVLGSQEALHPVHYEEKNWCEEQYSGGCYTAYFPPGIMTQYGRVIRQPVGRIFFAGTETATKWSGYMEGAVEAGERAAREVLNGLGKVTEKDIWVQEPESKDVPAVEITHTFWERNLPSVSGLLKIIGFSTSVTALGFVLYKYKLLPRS
In words: Activity on recombinant human MAO-A, method similar to VAP-1 assay, 0.5 mM tyramine substrate. The following applies: read-out: Inhibitory Activity (IC50, nM) MAO-A. The method, then: as §1, §2

Test [3] deals with T3, recombinant human VAP-1 (Homo sapiens, UniProt Q16853).
T3 construct: purchased R&D systems
T3 sequence (Q16853 1-763): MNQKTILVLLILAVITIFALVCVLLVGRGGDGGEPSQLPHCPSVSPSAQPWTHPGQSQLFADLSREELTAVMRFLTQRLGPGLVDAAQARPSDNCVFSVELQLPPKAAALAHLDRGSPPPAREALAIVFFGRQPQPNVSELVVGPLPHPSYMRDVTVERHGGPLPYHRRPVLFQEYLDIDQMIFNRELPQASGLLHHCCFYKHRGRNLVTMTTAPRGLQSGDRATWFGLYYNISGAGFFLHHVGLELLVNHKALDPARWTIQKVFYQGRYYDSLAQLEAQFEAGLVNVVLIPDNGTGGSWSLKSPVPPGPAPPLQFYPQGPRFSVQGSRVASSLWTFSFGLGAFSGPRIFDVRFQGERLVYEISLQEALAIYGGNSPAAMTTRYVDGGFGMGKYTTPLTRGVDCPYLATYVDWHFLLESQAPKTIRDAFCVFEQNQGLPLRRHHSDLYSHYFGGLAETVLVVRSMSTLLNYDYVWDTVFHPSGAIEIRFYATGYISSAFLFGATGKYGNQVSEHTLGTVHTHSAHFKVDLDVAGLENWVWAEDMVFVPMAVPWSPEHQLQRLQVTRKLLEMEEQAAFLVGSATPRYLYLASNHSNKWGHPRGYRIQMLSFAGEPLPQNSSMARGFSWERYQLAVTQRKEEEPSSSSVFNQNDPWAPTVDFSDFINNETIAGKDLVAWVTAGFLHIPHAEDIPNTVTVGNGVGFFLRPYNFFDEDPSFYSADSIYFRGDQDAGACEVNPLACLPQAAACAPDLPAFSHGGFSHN
Put plainly: Activity on recombinant human VAP-1, HRP-coupled Amplex Red hydrogen peroxide assay, benzylamine substrate. The conditions noted are these: 30 min incubation at 37° C., 1 mM benzylamine, read-out: Inhibitory Activity (IC50, nM) human VAP-1. How it is done:
as §1

For test [4], the target named is T4, recombinant human MAO-B (monoamine oxidase-B) (Homo sapiens, UniProt P27338).
T4 construct: purchased Sigma-Aldrich
T4 sequence (P27338 1-520): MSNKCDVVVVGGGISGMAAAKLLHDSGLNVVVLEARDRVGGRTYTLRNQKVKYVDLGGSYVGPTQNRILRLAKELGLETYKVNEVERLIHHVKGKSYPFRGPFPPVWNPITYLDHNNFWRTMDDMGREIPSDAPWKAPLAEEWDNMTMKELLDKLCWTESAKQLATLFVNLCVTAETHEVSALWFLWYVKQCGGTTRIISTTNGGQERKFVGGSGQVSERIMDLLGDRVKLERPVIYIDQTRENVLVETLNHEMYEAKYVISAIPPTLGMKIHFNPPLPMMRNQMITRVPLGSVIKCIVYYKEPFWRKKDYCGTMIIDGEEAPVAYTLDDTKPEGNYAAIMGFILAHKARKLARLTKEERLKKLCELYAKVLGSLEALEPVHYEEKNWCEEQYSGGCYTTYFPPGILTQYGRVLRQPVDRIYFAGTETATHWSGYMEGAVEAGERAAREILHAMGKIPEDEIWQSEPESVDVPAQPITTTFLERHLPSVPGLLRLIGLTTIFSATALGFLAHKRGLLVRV
Put plainly: Activity on recombinant human MAO-B, method similar to VAP-1 assay, 1 mM benzylamine substrate. The following applies: read-out: Inhibitory Activity (IC50, nM) MAO-B. How it is done: as §1, §2

Turning to `CN1C(=O)CCc2cc(-c3ccn4c(=O)n(CC(CN)=C(F)F)nc4c3)ccc21` [Example 54, 6-[2-[2-(aminomethyl)-3,3-difluoro-allyl]-3-oxo-[1,2,4]triazolo[4,3-a]pyridin-7-yl]-1-methyl-3,4-dihydroquinolin-2-one trifluoroacetate], the half-maximal inhibitory concentration (IC50) in test [1] was 22 nM; in test [2] it was over 100000 nM; in test [3], 0.1 nM; in test [4], 170 nM.

With `NC/C(=C\F)Cn1nc2cc(-c3ccc(-c4cnon4)cc3)ccn2c1=O` [Example 27, 2-[(2E)-2-(aminomethyl)-3-fluoroprop-2-en-1-yl]-7-[4-(1,2,5-oxadiazol-3-yl)phenyl][1,2,4]triazolo[4,3-a]pyridin-3(2H)-one hydrochloride], the IC50 in test [1] came out at 1.8 nM; in test [2], 1450 nM; in test [3], 0.6 nM; in test [4] it was 67 nM.

As to `Cc1cc(-c2ccn3c(=O)n(CC(CN)=C(F)F)nc3c2)cc2c1NC(=O)CC2` [Example 53, 6-[2-[2-(aminomethyl)-3,3-difluoro-allyl]-3-oxo-[1,2,4]triazolo[4,3-a]pyridin-7-yl]-8-methyl-3,4-dihydro-1H-quinolin-2-one trifluoroacetate], the concentration for half-maximal inhibition (IC50) is 12 nM in test [1], over 100000 nM in test [2], 0.2 nM in test [3] and 320 nM in test [4].

For the molecule `COc1ccc(-c2ccn3c(=O)n(C/C(=C/F)CN)nc3c2)cn1` [Example 31, 2-[(2E)-2-(aminomethyl)-3-fluoroprop-2-en-1-yl]-7-(6-methoxypyridin-3-yl)[1,2,4]triazolo[4,3-a]pyridin-3(2H)-one hydrochloride], the 50% inhibitory concentration (IC50) in test [1] is 5 nM; in test [2] it was over 100000 nM; in test [3], 0.3 nM; in test [4], 61 nM.

With `CN1CCOc2cc(C#Cc3ccn4c(=O)n(CC(CN)=C(F)F)nc4c3)ccc21` [Example 63, 2-[2-(aminomethyl)-3,3-difluoro-allyl]-7-[2-(4-methyl-2,3-dihydro-1,4-benzoxazin-7-yl)ethynyl]-[1,2,4]triazolo[4,3-a]pyridin-3-one trifluoroacetate], the IC50 in test [1] was 320 nM; in test [2], over 100000 nM; in test [3], 2.2 nM; in test [4], over 100000 nM.

For the molecule `CS(=O)(=O)c1ccc(-c2ccn3c(=O)n(CC(CN)=C(F)F)nc3c2)cc1` [Example 48, 2-[2-(aminomethyl)-3,3-difluoro-allyl]-7-(4-methylsulfonylphenyl)-[1,2,4]triazolo[4,3-a]pyridin-3-one trifluoroacetate], the IC50 is 100 nM in test [1], over 100000 nM in test [2], 0.1 nM in test [3] and 800 nM in test [4].

On to `CN(C)c1ccc(C#Cc2ccn3c(=O)n(CC(CN)=C(F)F)nc3c2)cn1` [Example 57, 2-[2-(aminomethyl)-3,3-difluoro-allyl]-7-[2-[6-(dimethylamino)-3-pyridyl]ethynyl]-[1,2,4]triazolo[4,3-a]pyridin-3-one trifluoroacetate], for which the IC50 in test [1] is 120 nM; in test [2] it was over 100000 nM; in test [3] it was 0.3 nM; in test [4], 6200 nM.

In the case of `CC(=O)Nc1ccc(-c2ccc3nn(C/C(=C/F)CN)c(=O)n3c2)cc1` [Example 2, N-[4-[2-[(2E)-2-(aminomethyl)-3-fluoroprop-2-en-1-yl]-3-oxo-2,3-dihydro[1,2,4]triazolo[4,3-a]pyridin-6-yl]phenyl]acetamide trifluoroacetate], the IC50 is under 100 nM in test [1], 68400 nM in test [2], 6.2 nM in test [3] and 1780 nM in test [4].

Turning to `CS(=O)(=O)c1cccc(-c2ccn3c(=O)n(C/C(=C/F)CN)nc3c2)c1` [Example 22, 2-[(2E)-2-(aminomethyl)-3-fluoroprop-2-en-1-yl]-7-[3-(methylsulfonyl)phenyl][1,2,4]triazolo[4,3-a]pyridin-3(2H)-one hydrochloride], the IC50 is 12 nM in test [1], over 100000 nM in test [2], 0.7 nM in test [3] and 180 nM in test [4].

The term IC50 denotes the midpoint of a concentration-inhibition curve.
